Molecules are shown by their SMILES.

In the assay the test system is Rhinovirus infection. Briefly: Treatment of a rhinovirus infection (common cold) in a patient. The class given is in vivo, human. Particulars: 50 mg orally in a water solution, after 15 minutes. As for the experimental part:
A patient with a common katarrhalic infection (common cold) was treated orally with 50 mg of (2RS,4R)-2-[3-Hydroxy-5-(hydroxymethyl)-2-methyl-4-pyridinyl]-4-thiazolidine carboxylic acid in a water solution. After 15 minutes the disease symptoms disappeared.

Turning to `Cc1ncc(CO)c(C2N[C@H](C(=O)O)CS2)c1O` (mixture of isomers) [(2RS,4R)-2-[3-Hydroxy-5-(hydroxymethyl)-2-methyl-4-pyridinyl]-4-thiazolidine carboxylic acid], the “disease symptoms of common katarrhalic infection (common cold)” value is given as “disappeared”.

The record behind these values is patent publication US6369042B1, “Antioxidative vitamin B6 analogs” (priority 1999, dated 2002).
